Reference: patent US10117433B2 (priority 2011, dated 2018)
Read-outs that look alike come from different tables or passages of the source.

What was measured:
[1] = system: adult worker honeybees (Apismellifera); details: acute oral; cited from earlier work
[2] = system: adult worker honeybees (Apismellifera); details: acute contact; cited from earlier work
[3] = system: cereal aphid Sitobion avenae; details: in vivo
[4] = system: tomato moth (Lacanobia oleracea); type: in vivo
Method: Effect of Transgenic Arabidopsis Expressing Fusion Proteins when Fed to Tomato Moth (Lacanobia oleracea)
20 neonate Lacanobia oleracea larvae were placed in pots (4 replicates, 5 larvae per pot) and allowed to feed on detached leaves of transgenic Arabidopsis plants. Survival was measured over the course of a 14-day period and weights were measured at days 11 and 14. Assays were repeated giving a total sample number of 40. Treatments used were control, GNA-expressing, ButalT/GNA fusion protein expressing, and GNA/ButalT fusion protein expressing. Two independent lines expressing the ButalT/GNA fusion protein (lines 40 and 45) were used.

M. brassicae larvae [5] = system: M. brassicae larvae; design: species or system Mamestra brassicae; details: in vivo
M. brassicae larvae [6] = system: M. brassicae larvae; design: species or system Mamestra brassicae; details: in vivo; remark: listed apart in the source
[7] = system: adult worker honeybees (Apismellifera); details: in vivo, po
Honeybees = details: in vivo
[8] = system: central nerve chord of M. brassicae larvae; details: in vivo
M. brassicae larvae [9] = system: M. brassicae larvae; design: species or system Mamestra brassicae; details: in vivo; remark: listed apart in the source
M. brassicae larvae [10] = system: M. brassicae larvae; design: species or system Mamestra brassicae; details: in vivo; remark: listed apart in the source
[11] = system: cotton bollworm Heliothis armigera; details: in vivo; cited from earlier work
Heliothis virescens = details: in vivo; cited from earlier work
newborn mice = details: mouse, in vivo; cited from earlier work
[12] = system: vertebrate-muscle preparations; details: cited from earlier work

Compound: C/C(=N\C#N)N(C)Cc1ccc(Cl)nc1 [Acetamiprid]
- reported LD50 [1]: 14.5 ug/bee
- reported LD50 [2]: 8.09 μg/bee

Compound: Galanthus nivalis agglutinin [GNA]
- survival compared to control treatments [3]: does not have a significant effect on the survival
- survival ([4]; first assay (FIG. 16), 14 days, ButalT/GNA line 40, GNA line 3, control 93%): 90%
- survival / larval mortality compared to controls ([4]; neonate larvae, conclusions): no effect on larval mortality
- reduction in mean weight ([4]; second assay, days 11 and 14, vs control): approx. 50%
- effect upon larvae when injected (M. brassicae larvae [5]): no effect
- average weight of surviving larvae reduced by (M. brassicae larvae [6]): 45%
- survival (larvae remained) (M. brassicae larvae [6]): 80%
- LD50 [7]: > 100 μg/bee
- LD50 to honeybees [7]: greater than 100 ug/bee
- effects on mortality [7]: smaller effects on mortality than acetamiprid
- toxicity by injection (Honeybees): higher toxicity than FP5
- bands in nerve tissue (anti-GNA Western blot) [8]: not observed
- presence in nerve chord and haemolymph samples (anti-GNA Western blot) [8]: positive immunoreactivity

Compound: ω-ACTX-Hv1a
- larval growth (M. brassicae larvae [9]): no effect on larval growth
- symptoms after injection of higher doses (M. brassicae larvae [5]): displayed symptoms of paralysis
- larval feeding / larval growth (M. brassicae larvae [10]): no reduction in larval growth
- oral activity (M. brassicae larvae [10]; po): not orally active
- ED50 [11]: 3 nmol/g
- PD50 (Heliothis virescens): 250 pmol/g
- effect on newborn mice (newborn mice): harmless
- effect on vertebrate-muscle preparations [12]: no effect
